Assays:
HG20 [1] = molecular target: T1, HG20 (Homo sapiens, UniProt O75899)
HG20 [2] = molecular target: T1, HG20; remark: listed apart in the source

T1 sequence (O75899 52-941): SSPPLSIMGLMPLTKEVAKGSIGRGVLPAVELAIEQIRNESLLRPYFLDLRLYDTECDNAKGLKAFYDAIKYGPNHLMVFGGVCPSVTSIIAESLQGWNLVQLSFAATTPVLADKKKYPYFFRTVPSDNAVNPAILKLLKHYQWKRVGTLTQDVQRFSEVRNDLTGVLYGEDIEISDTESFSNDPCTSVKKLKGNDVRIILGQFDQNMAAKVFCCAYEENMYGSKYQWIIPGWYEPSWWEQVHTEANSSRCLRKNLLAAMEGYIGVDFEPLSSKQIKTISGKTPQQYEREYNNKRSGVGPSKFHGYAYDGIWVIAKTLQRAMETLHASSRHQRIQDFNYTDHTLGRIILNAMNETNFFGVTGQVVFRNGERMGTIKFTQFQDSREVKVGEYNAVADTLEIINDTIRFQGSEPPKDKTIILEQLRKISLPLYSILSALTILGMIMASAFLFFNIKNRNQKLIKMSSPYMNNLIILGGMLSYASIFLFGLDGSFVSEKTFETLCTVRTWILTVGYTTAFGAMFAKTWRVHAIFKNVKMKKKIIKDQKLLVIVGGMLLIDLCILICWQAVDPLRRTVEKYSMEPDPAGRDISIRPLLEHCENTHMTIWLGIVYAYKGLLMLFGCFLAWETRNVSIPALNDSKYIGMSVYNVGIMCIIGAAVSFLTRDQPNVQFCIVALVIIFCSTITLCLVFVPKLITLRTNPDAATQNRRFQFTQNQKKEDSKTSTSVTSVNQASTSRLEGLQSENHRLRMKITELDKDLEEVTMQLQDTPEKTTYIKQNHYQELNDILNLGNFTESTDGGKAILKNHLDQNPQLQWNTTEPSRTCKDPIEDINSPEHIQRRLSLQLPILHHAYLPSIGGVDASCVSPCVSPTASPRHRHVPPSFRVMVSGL

N[C@@H](CCC(=O)O)C(=O)O [L-Glutamate, (L)-glutamic acid]
activity in Xenopus melanophore functional assay (HG20 [1]): no activity | pigment aggregation or dispersion response (HG20 [1]): no pigment aggregation or dispersion response | activity in Xenopus oocyte functional assay (HG20 [2]): no activity

NC/C=C\C(=O)O [cis-4-aminocrotonic acid]
pigment aggregation or dispersion response (HG20 [1]): no pigment aggregation or dispersion response

O=S(=O)(O)C1CCNCC1 [piperidine-4-sulfonic acid]
pigment aggregation or dispersion response (HG20 [1]): no pigment aggregation or dispersion response

(−)Baclofen
activity in Xenopus melanophore functional assay (HG20 [1]): no activity | pigment aggregation or dispersion response (HG20 [1]): no pigment aggregation or dispersion response | activity in Xenopus oocyte functional assay (HG20 [2]): no activity
